Test results as given in the supplement of paper PMC10307832.

Tests used:
Assay in all cases: relative viability (nuclei count vs DMSO), 5 days (fraction); higher = more cells survive
EHT 1864 + Trametinib = compound: C1COCCN1CC2=CC(=O)C(=CO2)OCCCCCSC3=C4C=CC(=CC4=NC=C3)C(F)(F)F [EHT 1864] + CC(=O)Nc1cccc(-n2c(=O)n(C3CC3)c(=O)c3c(Nc4ccc(I)cc4F)n(C)c(=O)c(C)c32)c1 [Trametinib] (partner 0.02 µM)
In short: (§1)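 A single step with final 0.05% Triton X-100, 1% formaldehyde and 1 ug/ml Hoechst fixed the cells and stained nuclei 5 days after treatment. Lung cancer cell lines in 1536-well plates had been treated by pin tool the day after seeding with one drug alone or a fixed anchor-drug dose plus five library-drug doses (not always all listed) in √10 steps, and nuclei were counted on 4× images. Relative viability is the ratio of nuclei in treated wells to nuclei in vehicle wells, taken as the median of duplicate plates.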

EHT 1864 + Olaparib = compound: C1COCCN1CC2=CC(=O)C(=CO2)OCCCCCSC3=C4C=CC(=CC4=NC=C3)C(F)(F)F [EHT 1864] + O=C(c1cc(Cc2n[nH]c(=O)c3ccccc23)ccc1F)N1CCN(C(=O)C2CC2)CC1 [Olaparib] (partner 8 µM)
In short: as §1

EHT 1864 + Phenformin = compound: C1COCCN1CC2=CC(=O)C(=CO2)OCCCCCSC3=C4C=CC(=CC4=NC=C3)C(F)(F)F [EHT 1864] + N=C(N)NC(=N)NCCc1ccccc1 [Phenformin] (partner 250 µM)
In short: as §1

EHT 1864 = compound: C1COCCN1CC2=CC(=O)C(=CO2)OCCCCCSC3=C4C=CC(=CC4=NC=C3)C(F)(F)F [EHT 1864]
In short: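 Five library-drug doses, separated by factors of √10, were pinned into 1536-well plates holding lung cancer cell lines after an overnight stay at 37 °C. Cells were fixed, permeabilised and Hoechst-stained in one step after 5 days without medium change, then imaged at 4×. Viability compares treated-well with vehicle-well nuclei, counted in MetaXpress, as a median across plates. Passing plates had control CV below 25% and at least one doubling.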

Row | Cell Line | relative viability (EHT 1864 + Trametinib; first compound 0.04 µM) | relative viability (EHT 1864 + Trametinib; first compound 0.4 µM) | relative viability (EHT 1864 + Trametinib; first compound 1.265 µM) | relative viability (EHT 1864 + Trametinib; first compound 4 µM) | relative viability (EHT 1864 + Olaparib; first compound 0.04 µM) | relative viability (EHT 1864 + Olaparib; first compound 0.4 µM) | relative viability (EHT 1864 + Olaparib; first compound 1.265 µM) | relative viability (EHT 1864 + Olaparib; first compound 4 µM) | relative viability (EHT 1864 + Phenformin; first compound 0.04 µM) | relative viability (EHT 1864 + Phenformin; first compound 0.1265 µM) | relative viability (EHT 1864 + Phenformin; first compound 0.4 µM) | relative viability (EHT 1864 + Phenformin; first compound 1.265 µM) | relative viability (EHT 1864 + Phenformin; first compound 4 µM) | relative viability (EHT 1864; 0.04 µM) | relative viability (EHT 1864; 0.1265 µM) | relative viability (EHT 1864; 0.4 µM) | relative viability (EHT 1864; 1.265 µM) | relative viability (EHT 1864; 4 µM) | relative viability (EHT 1864 + Trametinib; first compound 0.1265 µM) | relative viability (EHT 1864 + Olaparib; first compound 0.1265 µM)
1 | NCI-H441 | 0.365 | 0.544 | 0.573 | 0.51 | 0.562 | 0.503 | 0.477 | 0.617 | 0.845 | 0.604 | 0.717 | 0.853 | 0.932 | 1.03 | 0.747 | 0.941 | 1.12 | 1.17 |  | 
2 | NCI-H2126 | 0.614 | 0.545 | 0.503 | 0.548 | 0.916 | 0.887 | 0.882 | 0.915 | 0.557 | 0.515 | 0.571 | 0.543 | 0.567 | 0.983 | 0.914 | 0.986 | 0.985 | 0.999 | 0.568 | 0.926
3 | HCC-44 | 1.08 | 0.961 | 0.967 | 1.11 | 1.04 | 1.01 | 0.92 | 1.02 | 0.193 | 0.13 | 0.203 | 0.218 | 0.221 | 0.987 | 0.867 | 0.97 | 0.935 | 0.974 | 0.977 | 0.896
4 | NCI-H460 |  | 0.222 | 0.133 | 0.134 | 0.461 | 0.389 | 0.363 | 0.351 | 0.508 | 0.443 | 0.513 | 0.518 | 0.568 | 1.01 | 0.921 | 0.966 | 0.965 | 0.857 | 0.108 | 0.387
5 | SK-LU-1 | 0.594 | 0.477 | 0.378 | 0.464 | 0.464 | 0.471 | 0.451 | 0.447 | 0.538 | 0.36 | 0.52 | 0.575 | 0.587 | 1.07 | 0.93 | 1.01 | 0.993 | 0.939 | 0.516 | 0.515
6 | NCI-H322M | 0.525 | 0.544 | 0.595 | 0.595 | 0.704 | 0.811 | 0.782 | 0.879 | 0.798 | 0.739 | 0.752 | 0.783 | 0.824 | 0.95 | 0.921 | 0.942 | 1.05 | 0.923 | 0.525 | 0.822
7 | EKVX | 0.412 | 0.35 | 0.367 | 0.28 | 0.741 | 0.806 | 0.83 | 0.788 | 0.23 | 0.235 | 0.223 | 0.252 | 0.245 | 0.96 | 0.931 | 0.946 | 0.962 | 0.968 | 0.35 | 0.823
8 | NCI-H1734 | 0.781 | 0.643 | 0.592 | 0.61 | 0.71 | 0.619 | 0.679 | 0.635 | 0.539 |  | 0.397 | 0.433 | 0.432 | 1.07 | 0.702 | 1.03 | 1.09 | 0.906 | 0.709 | 0.64
